# Laboratory results taken from patent US20250353841A1 (BIOGEN MA INC., priority 2022, published 2025).
# Tested on: mutant Huntington (HTT) protein
# Experiment: HTT Mutant HTRF iPSC assay (mHTT protein lowering)
# Format: cell-based
# Conditions: human iPSC derived from a HTT patient with a poly-Q49 mutation
row,Structure (SMILES),IC50 [µM]
1,"CNCCc1cn2cc(-c3cc(C)c4nc(C)cn4n3)cc(F)c2n1 [Compound 12, 2-(6-(2,8-dimethylimidazo[1,2-b]pyridazin-6-yl)-8-fluoroimidazo[1,2-a]pyridin-2-yl)-N-methylethan-1-amine]",0.1 to 1
2,"Cc1cn2nc(-c3cc(F)c4nc(CC5CNC5)cn4c3)cc(C)c2n1 [Compound 13, 6-(2-(azetidin-3-ylmethyl)-8-fluoroimidazo[1,2-a]pyridin-6-yl)-2,8-dimethylimidazo[1,2-b]pyridazine]",0.1 to 1
3,"Cn1cc2cc(-c3cc(F)c4nc(CC5CCCNC5)cn4c3)cc(F)c2n1 (stereo not shown) [Compound 14, 7-fluoro-5-(8-fluoro-2-(piperidin-3-ylmethyl)imidazo[1,2-a]pyridin-6-yl)-2-methyl-2H-indazole]",0.1 to 1
4,"Cc1cn2cc(-c3cc(F)c4nc(CC5CCCNC5)cn4c3)cc(F)c2n1 (stereo not shown) [Compound 15, 8,8′-difluoro-2-methyl-2′-(piperidin-3-ylmethyl)-6,6′-biimidazo[1,2-a]pyridine]",0.1 to 1
5,"Cn1cc2cc(-c3cc(F)c4nc(C5CCCNC5)cn4c3)ccc2n1 (stereo not shown) [Compound 16, 5-(8-fluoro-2-(piperidin-3-yl)imidazo[1,2-a]pyridin-6-yl)-2-methyl-2H-indazole]",0.1 to 1
6,"Cn1cc2cc(-c3cc(F)c4nc(CC5CCCNC5)cn4c3)ccc2n1 (stereo not shown) [Compound 17, 5-(8-fluoro-2-(piperidin-3-ylmethyl)imidazo[1,2-a]pyridin-6-yl)-2-methyl-2H-indazole]",0.1 to 1
7,"CNCCc1cn2cc(-c3cc(F)c4nn(C)cc4c3)cc(F)c2n1 [Compound 18, 2-(8-fluoro-6-(7-fluoro-2-methyl-2H-indazol-5-yl)imidazo[1,2-a]pyridin-2-yl)-N-methylethan-1-amine]",1 to 9
8,"Cn1cc2cc(-c3cc(F)c4nc(CC5CNC5)cn4c3)cc(F)c2n1 [Compound 19, 5-(2-(azetidin-3-ylmethyl)-8-fluoroimidazo[1,2-a]pyridin-6-yl)-7-fluoro-2-methyl-2H-indazole]",1 to 9
9,"Cn1cc2cc(-c3cc(F)c4nc(CC5CNC5)cn4c3)ccc2n1 [Compound 20, 5-(2-(azetidin-3-ylmethyl)-8-fluoroimidazo[1,2-a]pyridin-6-yl)-2-methyl-2H-indazole]",1 to 9
10,"Cc1cn2cc(-c3cc(F)c4nc(CC5CNC5)cn4c3)cc(F)c2n1 [Compound 21, 2-(azetidin-3-ylmethyl)-8,8′-difluoro-2′-methyl-6,6′-biimidazo[1,2-a]pyridine]",1 to 9
11,"CNCCc1cn2cc(-c3ccc4nn(C)cc4c3)cc(F)c2n1 [Compound 22, 2-(8-fluoro-6-(2-methyl-2H-indazol-5-yl)imidazo[1,2-a]pyridin-2-yl)-N-methylethan-1-amine]",1 to 9
12,"Cn1cc2cc(-c3cc(F)c4nc(C5CNC5)cn4c3)cc(F)c2n1 [Compound 23, 5-(2-(azetidin-3-yl)-8-fluoroimidazo[1,2-a]pyridin-6-yl)-7-fluoro-2-methyl-2H-indazole]",1 to 9
13,"CNCCc1cn2cc(-c3cc(F)c4nc(C)cn4c3)cc(F)c2n1 [Compound 24, 2-(8,8′-difluoro-2′-methyl-[6,6′-biimidazo[1,2-a]pyridin]-2-yl)-N-methylethan-1-amine]",1 to 9
14,"CCN1CCC(c2cn3cc(-c4cc(C)c5nn(C)cc5c4)cc(F)c3n2)CC1 [Compound 25, 5-(2-(1-ethylpiperidin-4-yl)-8-fluoroimidazo[1,2-a]pyridin-6-yl)-2,7-dimethyl-2H-indazole]",0.1 to 1
15,"CN1CCC(c2cn3cc(-c4cc(F)c5nn(C)cc5c4)cc(F)c3n2)CC1 [Compound 26, 7-fluoro-5-(8-fluoro-2-(1-methylpiperidin-4-yl)imidazo[1,2-a]pyridin-6-yl)-2-methyl-2H-indazole]",0.1 to 1
16,"CCN1CCC(c2cn3cc(-c4cc(C)c5nc(C)cn5c4)cc(F)c3n2)CC1 [Compound 27, 2-(1-ethylpiperidin-4-yl)-8-fluoro-2′,8′-dimethyl-6,6′-biimidazo[1,2-a]pyridine]",0.1 to 1
